The values below come from patent publication US20100068181A1, “PYRROLO [3, 2-A] PYRIDINE DERIVATIVES FOR INHIBITING KSP KINESIN ACTIVITY” (Schering Corporation, priority 2006, published 2010).

Structures are written as SMILES.

One assay addresses T1, KSP (Homo sapiens, UniProt P52732).
T1 sequence (P52732 1-1056): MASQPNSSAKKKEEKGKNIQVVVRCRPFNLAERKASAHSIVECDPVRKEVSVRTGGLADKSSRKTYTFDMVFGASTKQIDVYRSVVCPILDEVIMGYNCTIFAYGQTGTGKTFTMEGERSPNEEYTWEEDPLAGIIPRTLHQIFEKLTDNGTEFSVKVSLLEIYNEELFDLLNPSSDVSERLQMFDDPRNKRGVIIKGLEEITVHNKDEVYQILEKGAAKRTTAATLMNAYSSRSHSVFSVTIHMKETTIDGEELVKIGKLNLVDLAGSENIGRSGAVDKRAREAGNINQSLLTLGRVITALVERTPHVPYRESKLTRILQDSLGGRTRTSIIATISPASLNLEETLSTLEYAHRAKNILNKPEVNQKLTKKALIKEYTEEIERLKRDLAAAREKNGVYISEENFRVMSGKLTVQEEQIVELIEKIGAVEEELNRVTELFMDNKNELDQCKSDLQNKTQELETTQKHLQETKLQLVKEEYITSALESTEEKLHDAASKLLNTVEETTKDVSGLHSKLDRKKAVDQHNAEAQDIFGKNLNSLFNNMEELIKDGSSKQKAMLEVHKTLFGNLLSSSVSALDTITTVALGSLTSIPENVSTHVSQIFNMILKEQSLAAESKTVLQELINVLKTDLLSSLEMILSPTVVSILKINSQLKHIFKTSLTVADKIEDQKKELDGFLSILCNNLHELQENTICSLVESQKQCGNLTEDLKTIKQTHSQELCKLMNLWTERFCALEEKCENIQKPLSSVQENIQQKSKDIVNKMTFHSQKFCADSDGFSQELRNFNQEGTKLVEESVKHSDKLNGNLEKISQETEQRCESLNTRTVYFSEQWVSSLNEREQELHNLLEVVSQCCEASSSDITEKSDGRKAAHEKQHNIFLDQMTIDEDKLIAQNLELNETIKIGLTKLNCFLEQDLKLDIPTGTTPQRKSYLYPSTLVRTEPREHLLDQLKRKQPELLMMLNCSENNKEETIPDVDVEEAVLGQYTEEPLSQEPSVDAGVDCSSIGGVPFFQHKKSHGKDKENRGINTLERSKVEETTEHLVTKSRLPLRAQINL
Briefly: KSP inhibitory activity, end-point assay. As to conditions: KSP inhibitory activity based on end-point assay; read-out: IC50 Rating. Format: biochemical. From the text: The inhibitory activity of the present compounds towards KSP may be assayed by methods known in the art, for example, by using the methods as described in the examples.
For the compound `CC(C)(C)[C@@H]1CCc2nc3cc(C(N)=O)[nH]c3cc2C1` (single isomer, unassigned) [Example 21A], the IC50 is below 100 nM.

Consider `CC(C)(C)[C@H]1CCc2nc3cc(C(N)=O)[nH]c3cc2C1` (single isomer, unassigned) [Example 21B], for which the IC50 was in the range of 100 to 1000 nM.

For `CNC(=O)c1cc2nc3c(cc2[nH]1)C[C@H](C(C)(C)C)CC3` (single isomer, unassigned) [Example 22A], the IC50 is below 100 nM.

Take `CNC(=O)c1cc2nc3c(cc2[nH]1)C[C@@H](C(C)(C)C)CC3` (single isomer, unassigned) [Example 22B]: the half-inhibitory concentration (IC50) lay within 100 to 1000 nM.

For `CCOC(=O)c1cc2nc3c(cc2[nH]1)CC(C(C)(C)C)CC3` (centres unmarked) [Example 1], the 50% inhibitory concentration (IC50) lay within 1000 to 10000 nM.

For `CC(C)(C)C1CCc2nc3cc(C(N)=O)[nH]c3cc2C1` (centres unmarked) [Example 2], the IC50 was below 100 nM.

As to `CNC(=O)c1cc2nc3c(cc2[nH]1)CC(C(C)(C)C)CC3` (centres unmarked) [Example 3], the IC50 was below 100 nM.

Turning to `CCNC(=O)c1cc2nc3c(cc2[nH]1)CC(C(C)(C)C)CC3` (centres unmarked) [Example 4], the IC50 fell in the range of 100 to 1000 nM.

For `CC(C)(C)C1CCc2nc3cc(C(=O)NCCCCN)[nH]c3cc2C1` (centres unmarked) [Example 5], the IC50 was in the range of 100 to 1000 nM.

`CC(C)(C)C1CCc2nc3cc(C(=O)NCCN)[nH]c3cc2C1` (centres unmarked) [Example 6]: the IC50 was 100 to 1000 nM.

`CC(C)(C)C1CCc2nc3cc(C(=O)NCCO)[nH]c3cc2C1` (centres unmarked) [Example 7]: the IC50 fell in the range of 100 to 1000 nM.

For `CC(C)(C)C1CCc2nc3cc(C(=O)NCCCN)[nH]c3cc2C1` (centres unmarked) [Example 8], the IC50 is 1000 to 10000 nM.

In the case of `CC(C)(C)C1CCc2nc3cc(C(=O)NCCCO)[nH]c3cc2C1` (centres unmarked) [Example 9], the IC50 lay within 100 to 1000 nM.

On to `CC(C)(C)C1CCc2nc3cc(C(=O)NCCCCCN)[nH]c3cc2C1` (centres unmarked) [Example 10], for which the IC50 is 100 to 1000 nM.

For `CC(C)(C)C1CCc2nc3cc(C(=O)NCCCCCO)[nH]c3cc2C1` (centres unmarked) [Example 11], the IC50 lay within 1000 to 10000 nM.

`CC(C)(C)C1CCc2nc3cc(C(=O)NCCCCCCO)[nH]c3cc2C1` (centres unmarked) [Example 12]: the IC50 was above 10000 nM.

As to `CC(C)(C)C1CCc2nc3cc(C(=O)NCCCCO)[nH]c3cc2C1` (centres unmarked) [Example 13], the IC50 was in the range of 1000 to 10000 nM.

Turning to `CC(C)(C)C1CCc2nc3cc(C(=O)NCCCCCCN)[nH]c3cc2C1` (centres unmarked) [Example 14], the IC50 lay within 100 to 1000 nM.

Regarding `CC(C)(C)C1CCc2nc3cc(C(=O)NCCc4ccc(O)cc4)[nH]c3cc2C1` (centres unmarked) [Example 15], the IC50 is above 10000 nM.

In the case of `CN1CCN(C(=O)c2cc3nc4c(cc3[nH]2)CC(C(C)(C)C)CC4)CC1` (centres unmarked) [Example 16], the IC50 was above 10000 nM.

As to `CC(C)(C)C1CCc2nc3cc(C(=O)NN)[nH]c3cc2C1` (centres unmarked) [Example 17], the IC50 was below 100 nM.

In the case of `CC(C)(C)C1CCc2nc3cc(C(=O)NCc4ccccc4)[nH]c3cc2C1` (centres unmarked) [Example 18], the IC50 is above 10000 nM.

With `CC(C)(C)C1CCc2nc3cc(C(=O)NCc4cccnc4)[nH]c3cc2C1` (centres unmarked) [Example 19], the IC50 was above 10000 nM.

Take `C[C@@H](CO)NC(=O)c1cc2nc3c(cc2[nH]1)CC(C(C)(C)C)CC3` (some centres unmarked) [Example 20]: the IC50 fell in the range of 1000 to 10000 nM.

In the case of `CC(C)(C)C1CCc2nc3cc(CO)[nH]c3cc2C1` (centres unmarked) [Example 23], the concentration for half-maximal inhibition (IC50) is below 100 nM.

For the compound `CC(C)(C)C1CCc2nc3cc(CN)[nH]c3cc2C1` (centres unmarked) [Example 25], the IC50 is 100 to 1000 nM.

Turning to `CC(C)(C)C1CCc2nc3c([N+](=O)[O-])c(C(N)=O)[nH]c3cc2C1` (centres unmarked) [Example 26], the IC50 was above 10000 nM.

With `CC(C)(C)C1CCc2nc3c(N)c(C(N)=O)[nH]c3cc2C1` (centres unmarked) [Example 27], the IC50 lay within 100 to 1000 nM.

For `C=Cc1cc2nc3c(cc2[nH]1)CC(C(C)(C)C)CC3` (centres unmarked) [Example 28], the IC50 was 1000 to 10000 nM.

Turning to `CC(O)c1cc2nc3c(cc2[nH]1)CC(C(C)(C)C)CC3` (centres unmarked) [Example 29], the 50% inhibitory concentration (IC50) was in the range of 100 to 1000 nM.

Staying with this assay, now noted: numerical IC50 values for representative compounds; read-out: IC50.
Consider `CC(C)(C)[C@@H]1CCc2nc3cc(C(N)=O)[nH]c3cc2C1` (single isomer, unassigned) [Example 21A], for which the half-inhibitory concentration (IC50) turned out to be 30 nM.

As for `CNC(=O)c1cc2nc3c(cc2[nH]1)C[C@H](C(C)(C)C)CC3` (single isomer, unassigned) [Example 22A], the IC50 came to 20 nM.

Consider `CC(C)(C)C1CCc2nc3cc(C(N)=O)[nH]c3cc2C1` (centres unmarked) [Example 2], for which the IC50 came to 30 nM.

Regarding `CNC(=O)c1cc2nc3c(cc2[nH]1)CC(C(C)(C)C)CC3` (centres unmarked) [Example 3], the IC50 worked out at 50 nM.

`CC(C)(C)C1CCc2nc3cc(CO)[nH]c3cc2C1` (centres unmarked) [Example 23]: the IC50 stood at 40 nM.

The IC50 is the midpoint of a concentration-inhibition curve.
